≈ marks a conversion by molar mass, not a printed value.
Assays:
[1] = target: T1, Adenosine receptor A3 (Homo sapiens) (UniProt P0DMS8); test: Inhibition of [3H]NECA binding to human adenosine A3 receptor expressed in human HeLa cells at 1 uM after 3 hrs by filtration binding assay; format: cell-based
T1 sequence (whole entry): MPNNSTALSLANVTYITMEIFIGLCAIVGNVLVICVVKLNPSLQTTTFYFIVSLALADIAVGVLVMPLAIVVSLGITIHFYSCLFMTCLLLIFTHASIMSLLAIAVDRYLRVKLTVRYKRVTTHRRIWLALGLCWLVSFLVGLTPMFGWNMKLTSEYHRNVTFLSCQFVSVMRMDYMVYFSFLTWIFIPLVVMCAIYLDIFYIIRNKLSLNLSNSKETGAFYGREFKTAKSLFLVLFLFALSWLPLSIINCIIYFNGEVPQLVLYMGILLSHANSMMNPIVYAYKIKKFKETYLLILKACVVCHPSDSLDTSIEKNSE

[2] = Clearance in rat at 1 mg/kg, iv; format: ADME, organism-based; parameters: dose 1 mg/kg, route intravenous; conditions: in vivo
[3] = Volume of distribution at steady state in rat at 1 mg/kg, iv; format: ADME, organism-based; parameters: dose 1 mg/kg, route intravenous; conditions: in vivo, read-out: Vdss
[4] = target: T2, Adenosine receptor A1 (Homo sapiens, UniProt P30542); test: Displacement of [3H]DPCPX from human adenosine A1 receptor expressed in CHO cells after 90 mins by filtration binding assay; format: cell-based
T2 sequence (P30542 whole entry): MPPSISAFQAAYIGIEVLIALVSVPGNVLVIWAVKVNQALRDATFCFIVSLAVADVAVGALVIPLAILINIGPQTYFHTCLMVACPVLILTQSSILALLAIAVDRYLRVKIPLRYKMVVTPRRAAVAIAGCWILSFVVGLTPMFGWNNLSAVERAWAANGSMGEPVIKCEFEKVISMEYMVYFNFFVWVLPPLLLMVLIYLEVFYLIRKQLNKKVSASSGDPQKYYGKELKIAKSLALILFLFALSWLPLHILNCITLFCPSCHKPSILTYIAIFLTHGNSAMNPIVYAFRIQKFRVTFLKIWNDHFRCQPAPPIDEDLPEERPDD

[5] = Metabolic stability in rat liver microsomes assessed as turnover at 5 uM after 30 mins in absence of NADPH; format: ADME, Microsome; conditions: read-out: Stability
[6] = target: T3, Adenosine receptor A2b (Homo sapiens, UniProt P29275); test: Displacement of [3H]DPCPX from human adenosine A2B receptor expressed in HEK293 cells after 60 mins by filtration binding assay; format: cell-based
T3 sequence (P29275 whole entry): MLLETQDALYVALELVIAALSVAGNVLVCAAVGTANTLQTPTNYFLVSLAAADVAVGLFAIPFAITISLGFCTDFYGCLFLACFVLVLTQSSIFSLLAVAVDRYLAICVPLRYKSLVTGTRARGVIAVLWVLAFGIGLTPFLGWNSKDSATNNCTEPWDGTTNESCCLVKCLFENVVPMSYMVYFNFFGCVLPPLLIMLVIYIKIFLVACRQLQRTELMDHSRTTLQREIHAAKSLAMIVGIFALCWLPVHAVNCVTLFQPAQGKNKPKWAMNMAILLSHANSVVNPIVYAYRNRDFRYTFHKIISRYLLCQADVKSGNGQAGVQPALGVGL

[7] = Terminal half life in rat at 1 mg/kg, iv; format: ADME, organism-based; parameters: dose 1 mg/kg, route intravenous; conditions: in vivo
[8] = Apparent permeability across human Caco-2 cells at 12.5 uM; format: ADME, cell-based; conditions: read-out: permeability
[9] = AUC (0 to infinity) in rat at 1 mg/kg, iv; format: ADME, organism-based; parameters: time infinity, dose 1 mg/kg, route intravenous; conditions: plasma
[10] = target: Adenosine receptor A2a (Homo sapiens, UniProt P29274); test: Displacement of [3H]ZM241385 from human adenosine A2A receptor expressed in human HeLa cells after 1 hr by scintillation proximity assay; format: cell-based
Adenosine receptor A2a, sequence (P29274 whole entry): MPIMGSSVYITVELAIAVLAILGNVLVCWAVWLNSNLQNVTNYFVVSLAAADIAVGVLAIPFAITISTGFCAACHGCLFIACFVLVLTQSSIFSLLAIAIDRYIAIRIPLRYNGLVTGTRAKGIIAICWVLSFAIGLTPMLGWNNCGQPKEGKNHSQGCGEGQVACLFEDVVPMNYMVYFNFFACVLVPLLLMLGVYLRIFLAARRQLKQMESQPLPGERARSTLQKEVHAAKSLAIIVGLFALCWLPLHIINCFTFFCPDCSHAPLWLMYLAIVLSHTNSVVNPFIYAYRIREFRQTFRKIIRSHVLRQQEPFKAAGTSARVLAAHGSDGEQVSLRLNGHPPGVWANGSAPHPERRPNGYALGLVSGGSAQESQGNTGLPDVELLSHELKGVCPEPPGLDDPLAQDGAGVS

[11] = Cmax in rat at 1 mg/kg, iv; format: ADME, organism-based; parameters: dose 1 mg/kg, route intravenous; conditions: in vivo
[12] = Thermodynamic solubility at pH 7.4; format: physicochemical; conditions: buffer
[13] = target: T4, Adenosine receptor A3 (Homo sapiens, UniProt P0DMS8); test: Displacement of [3H]NECA from human adenosine A3 receptor expressed in human HeLa cells after 3 hrs by filtration binding assay; format: cell-based
T4 sequence (P0DMS8 whole entry): T1 sequence (whole entry)

[14] = Oral bioavailability in rat at 10 mg/kg; format: ADME, organism-based; conditions: in vivo

SMILES | inhibition [1] | clearance [2] | Vd [3] | Ki [4] | metabolised at 0.5 h, 5 µM [5] | Ki [6] | half-life [7] | Papp at 12.5 µM [8] | AUC(0-inf) [9] | Ki [10] | Cmax [11] | solubility thermodynamic [12] | Ki [13] | bioavailability [14]
Nc1n[nH]c2nc(-c3ccco3)c(-c3ccncn3)cc12 | 15% | 102 mL/min/kg | 3.7 L/kg | 357 nM | 6% | 8 nM | 24 min | 24 ×10⁻⁶ cm/s | 164 ng·h/mL | 858 nM | 397 ng/mL | 204 µg/mL (≈ 733 µM) | – | –
c1coc(-c2nc3[nH]cnc3cc2-c2ccncn2)c1 | 0% | – | – | 717 nM | 10% | 21 nM | – | 23 ×10⁻⁶ cm/s | – | 3600 nM | – | – | – | –
O=c1[nH]c(=O)c2cc(-c3ccncn3)c(-c3ccco3)nc2[nH]1 | – | 20 mL/min/kg | 0.75 L/kg | 1730 nM | 0% | 1 nM | 24 min | 20 ×10⁻⁶ cm/s | 880 ng·h/mL | 181 nM | 1680 ng/mL | 61 µg/mL (≈ 199 µM) | 6270 nM | –
c1coc(-c2nc3[nH]ncc3cc2-c2ccncn2)c1 | 2% | 23.3 mL/min/kg | 0.8 L/kg | 478 nM | 17% | 23 nM | 36 min | 39 ×10⁻⁶ cm/s | 736 ng·h/mL | 1660 nM | 1050 ng/mL | 296 µg/mL (≈ 1120 µM) | – | –
Cn1c(=O)[nH]c2nc(-c3ccco3)c(-c3ccncn3)cc21 | 17% | – | – | 2440 nM | 8% | 11 nM | – | 32 ×10⁻⁶ cm/s | – | 2130 nM | – | – | – | –
O=C(Nc1ccc(-c2ccncn2)c(-c2ccco2)n1)C1CC1 | – | – | – | – | – | – | – | 45 ×10⁻⁶ cm/s | – | – | – | – | – | –

Results, then the molecule that gave them:

inhibition [1] | clearance [2] | Vd [3] | Ki [4] | metabolised at 0.5 h, 5 µM [5] | Ki [6] | half-life [7] | Papp at 12.5 µM [8] | AUC(0-inf) [9] | Ki [10] | Cmax [11] | solubility thermodynamic [12] | Ki [13] | bioavailability [14] | SMILES
2% | 33.3 mL/min/kg | 0.6 L/kg | 82 nM | 7% | 3 nM | 24 min | 3.5 ×10⁻⁶ cm/s | 504 ng·h/mL | 177 nM | 1330 ng/mL | – | – | – | O=c1[nH][nH]c2nc(-c3ccco3)c(-c3ccncn3)cc12
18% | 50 mL/min/kg | 1 L/kg | 317 nM | 15% | 6 nM | 60 min | 40 ×10⁻⁶ cm/s | 350 ng·h/mL | 769 nM | 762 ng/mL | 48 µg/mL (≈ 172 µM) | – | 20% | O=c1[nH]c2cc(-c3ccncn3)c(-c3ccco3)nc2[nH]1
7% | – | – | 252 nM | 88% | 13 nM | – | 40 ×10⁻⁶ cm/s | – | 619 nM | – | – | – | – | c1coc(-c2nc3[nH]ccc3cc2-c2ccncn2)c1
